Test results: patent US9238631B2, “Radiolabeled amino acids for diagnostic imaging” (PIRAMAL IMAGING SA, priority 2011, dated 2016)

Experiments:
[1] = test system: A549 tumor; conditions: cited from earlier work
[2] = test system: NCI-H460 (human NSCLC) cells; experiment: Time-dependent uptake and blocking of [^18F]-41 in NCI-H460 cells; assay type: cell-based
Method: NCI-H460 (human NSCLC) cells, grown adherently in 48 well plates were used for these experiments. Approximately 100.000 cells were incubated in PBS-buffer containing 0.1% BSA with 0.25 MBq [^18F]-41 for up to 60 minutes. A time-dependent uptake was observed during the 60 min incubation period. Approximately 13% of applied dose was taken up by the cells during the 60 min incubation period (FIG. 6). For the blocking study [^18F]-41 was co-incubated with 1 mM 41 for 30 minutes. After this time, the cell bound radioactivity was determined.

[3] = test system: reactive lymph nodes; experiment: PET uptake in inflammatory lesions (streptozotocin-induced reactive lymph nodes); assay type: in vivo, mice; conditions: dynamic PET 1 h, 3 days after streptozotocin
Method: To test the specificity of compounds from the present invention, compound [^18F]-41 was examined in an animal model of reactive lymph nodes in comparison to the clinically commonly used PET tracer FDG. Therefore, female immunocompetent NMRI mice (10 weeks old) were injected with streptozotocin (500 μg/40 μL PBS) in the right hind limb to induce an inflammatory reaction in the right popliteal and additional lymph nodes. PET imaging studies were performed 3 days after Streptozotocin injection. PET images were acquired dynamically for 1 h after injection of approximately 5-10 MBq. After the imaging study, region-of-interest (ROI) analysis was performed in the popliteal, inguinal and iliacal lymph nodes. At least 3 animals were examined per tracer.

[4] = target: T1, xCT (SLC7A11) (Homo sapiens, UniProt Q9UPY5); experiment: Competition profile indicating uptake via xCT (SLC7A11); assay type: cell-based; conditions: co-incubation with 1 mM cold competitors, NCI-H460 cells
T1 construct: NCI-H460 tumor cells were co-incubated with the F-18 labeled tracer and several cold derivatives; endogenous in cells; host or cells: NCI-H460 tumor cells
T1 sequence (Q9UPY5 1-501): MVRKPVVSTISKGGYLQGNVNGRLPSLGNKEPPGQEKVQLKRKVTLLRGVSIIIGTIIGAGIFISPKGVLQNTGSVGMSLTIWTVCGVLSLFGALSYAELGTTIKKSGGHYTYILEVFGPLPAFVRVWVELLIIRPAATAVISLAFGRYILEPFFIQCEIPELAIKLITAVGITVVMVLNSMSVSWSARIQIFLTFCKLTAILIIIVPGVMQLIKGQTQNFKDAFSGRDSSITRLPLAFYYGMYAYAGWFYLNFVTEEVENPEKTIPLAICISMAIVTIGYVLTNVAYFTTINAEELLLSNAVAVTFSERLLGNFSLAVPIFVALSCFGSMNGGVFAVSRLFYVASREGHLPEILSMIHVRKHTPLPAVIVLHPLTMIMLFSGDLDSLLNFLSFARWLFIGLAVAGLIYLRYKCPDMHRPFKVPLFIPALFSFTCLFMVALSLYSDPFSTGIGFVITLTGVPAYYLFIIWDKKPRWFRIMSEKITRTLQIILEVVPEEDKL
T1 sequence (P08195 1-529 partner): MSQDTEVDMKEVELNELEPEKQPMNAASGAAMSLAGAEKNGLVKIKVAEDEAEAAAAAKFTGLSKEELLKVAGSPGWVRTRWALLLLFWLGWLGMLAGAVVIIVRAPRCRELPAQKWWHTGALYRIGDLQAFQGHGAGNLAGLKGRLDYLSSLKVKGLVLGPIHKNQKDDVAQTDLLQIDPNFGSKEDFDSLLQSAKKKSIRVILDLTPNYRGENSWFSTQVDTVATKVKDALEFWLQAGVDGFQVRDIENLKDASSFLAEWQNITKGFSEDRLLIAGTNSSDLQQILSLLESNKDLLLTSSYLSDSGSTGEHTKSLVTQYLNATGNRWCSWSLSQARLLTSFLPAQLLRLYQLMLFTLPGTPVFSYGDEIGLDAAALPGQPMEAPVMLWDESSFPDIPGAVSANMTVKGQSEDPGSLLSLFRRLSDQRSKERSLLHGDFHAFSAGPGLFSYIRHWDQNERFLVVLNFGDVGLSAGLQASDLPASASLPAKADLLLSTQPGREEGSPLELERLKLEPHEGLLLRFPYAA
Method: For determination of the responsible uptake mechanism, NCI-H460 tumor cells were co-incubated with the F-18 labeled tracer and several cold derivatives. These derivatives were used at a concentration of 1 mM, which is a large excess compared to the tracer. L-Glutamic acid, L-cystine, Carboxyphenylglycine (CPG) were used as competitors. In addition, also D-Glutamic acid, as well as L-aspartic acid and D-aspartic acid were used in this competition experiments. […] The same experiments were performed using [^18F]-1, [^18F]-4, [^18F]-9, [^18F]-8, [^18F]-25 and [^18F]-22.

[5] = test system: NCI-H460 tumor; experiment: In vivo biodistribution in NCI-H460 tumor bearing mice; conditions: for T/Blood / T/Muscle: 1 h post injection
Method: (§1) To test the pharmacokinetic properties of compounds from the present invention, all F18-labeled compounds were examined by biodistribution studies in NCI-H460 tumor bearing mice. Female NMRI (nu/nu) mice were inoculated with 5×10^6 NCI-H460 tumor cells 8 to 10 days before the biodistribution studies. 185 kBq of activity of the fluorinated compound was injected and at least n=3 mice were used for every time point. After injection of the F18-labeled compound, mice were sacrificed at defined time-points. All organs were removed and radioactivity was determined using a γ-counter.
To compare the tumor uptake and retention of radioactivity of different ^18F-labeled derivatives from the present invention, biodistribution studies were performed in NCI-H460 tumor bearing NMRI (nu/nu) mice as described above.
To compare the kidney clearance of several ^18F-labeled derivatives from the present invention, biodistribution studies were performed in NCI-H460 tumor bearing female NMRI (nu/nu) mice as described above. […] After 2 h p.i., less than 1% ID/g can be found in the kidneys.
For comparison of pancreas uptake and clearance of several ^18F-labeled derivatives from the present invention, biodistribution studies were performed in NCI-H460 tumor bearing NMRI (nu/nu) mice as described above. […] After 2 h p.i., less than 2% ID/g can be found in the pancreas.
as §1, with “and” for “for every time point. After injection of the F18-labeled compound, mice were”, “time-points raning from 15 min pi up to 2 h p.i.” for “time-points.”, “γ-counter. […] High tumor uptake values of >3% ID/g were obtained with various compounds from the present invention.” for “γ-counter.”

[6] = test system: NCI-H460 (human NSCLC) cells; experiment: Cell uptake studies: 30 min uptake in H460 cells; assay type: cell-based; conditions: 0.25 MBq tracer, PBS 0.1% BSA
Method: For determination of the biological activity, the F18 labeled derivatives were used as tracers in cell uptake experiments. NCI-H460 (human NSCLC) cells, grown adherently in 48 well plates were used for these uptake-experiments. Approximately 100.000 cells were incubated with 0.25 MBq of the tracers for 30 min in PBS-buffer containing 0.1% BSA. After this time, the cell-bound radioactivity was determined using a γ-counter.

[7] = test system: NCI-H460 tumor; experiment: PET imaging in NCI-H460 tumor bearing nude-rats; assay type: in vivo; conditions: PET ROI analysis, 1 h p.i.
Method: c) Beside PET-imaging studies in mice, also the imaging properties of [^18F]-12 in rats were examined. NCI-H460 tumor cells were inoculated into the right flank of nude-rats (RH-Foxn1 nu/nu) 8 to 10 days before the PET study. PET images were acquired at 60 min after injection of approximately 10 MBq for 10 minutes. The H460 tumor was nicely visible (0.9% ID/g as determined by ROI analysis). Beside some minor uptake into the liver and kidneys due to the excretion of the compound, no uptake into other non-target tissues was observed.
To test the imaging properties, compounds from the present invention were evaluated in PET imaging studies using tumor bearing rats. NCI-H460 tumor cells were inoculated into the right flank of nude-rats (RH-Foxn1 nu/nu) 8 to 10 days before the PET study. PET images were acquired at 60 min after injection of approximately 10 MBq for 10 minutes. After the imaging study, region-of-interest (ROI) analysis was performed and activity in tumor, liver and kidney was determined. […] High tumor uptake values of >1% […] in this rat model were obtained with various compounds from the present invention. A favorable clearance profile of all compounds enables excellent tumor detection in PET imaging studies in tumor bearing rats.

[8] = test system: H460 cells; experiment: Retention of radioactivity in H460 cells (efflux); assay type: cell-based, human; conditions: 30 minute efflux period after 30 minutes loading
Method: The retention of radioactivity in tumor cells was examined. Therefore. H460 cells were loaded with 0.25 MBq of the respective tracer for 30 minutes in PBS buffer, containing 0.1% BSA. After this uptake, the buffer was removed and the cells were washed with PBS. The cells were then reincubated with new PBS buffer, without radioactivity for up to 30 minutes. The release of activity into the supernatant as well as the retention of activity inside the cells was examined. It was discovered, that only a limited amount of activity was released into the supernatant during the 30 minute efflux period. More than 80% of the activity were retained inside the tumor cells during the 30 minute incubation under these efflux conditions.
In addition, the retention of radioactivity in tumor cells was examined. Therefore. H460 cells were loaded with 0.25 MBq of [^18F]-41 for 30 minutes in PBS buffer, containing 0.1% BSA. After this uptake, the buffer was removed and the cells were washed with PBS. The cells were then reincubated with new PBS buffer without radioactivity for 30 min. The release of activity into the supernatant as well as the retention of activity inside the cells was determined. It was discovered, that only a limited amount of activity was released into the supernatant during the 30 minute efflux period. […]

Structure (SMILES)	time-course of activity in the reactive lymph nodes [3]	Kidney (% ID/g at 1 h p.i.) [5]	Liver (% ID/g at 1 h p.i.) [5]	Pancreas (% ID/g at 1 h p.i.) [5]	Tumor (% ID/g at 1 h p.i.) [5]	Urine (% ID at 1 h p.i.) [5]	T/Blood [5]	T/Muscle [5]	Kidney (% ID/g at 1 h p.i.) [7]	Liver (% ID/g at 1 h p.i.) [7]	Tumor (Max % ID/g at 1 h p.i.) [7]	Tumor (Mean % ID/g at 1 h p.i.) [7]	other results
N[C@@H](CC(CCC[18F])C(=O)O)C(=O)O (stereo partly shown) [4-(3-[^18F]fluoropropyl)glutamic acid]													Kidney uptake ([1]; 30 min post injection): 6.4 % ID/g; pancreas uptake ([1]; 30 min post injection): 8.5 % ID/g; tumor uptake ([1]; 1 h post injection): 1.6 % ID/g
N[C@@H](CCC(Cc1ccc(OCF)cc1)C(=O)O)C(=O)O (stereo partly drawn) [Example 41, (2S)-2-amino-5-[4-(fluoromethoxy)benzyl]hexanedioic acid]													blocking of [^18F]-41 uptake ([2]; co-incubation with 1 mM 41, 30 minutes): strong competitor
OC[C@H]1OC(O)[C@H]([18F])[C@@H](O)[C@@H]1O (stereo partly shown) [FDG, 2-[^18F]fluorodeoxyglucose, reference compound]	remained almost constant												
N[C@@H](CC(Cc1ccc(O[C@H]2C[C@@H]([18F])C2)cc1)C(=O)O)C(=O)O (stereo partly drawn) [[^18F]-22, 4-{4-[(cis-3-[^18F]Fluorocyclobutyl)oxy]benzyl}-L-glutamic acid]		1.8 ± 0.6 % ID/g	4.1 ± 0.8 % ID/g	0.63 ± 0.04 % ID/g	1.3 ± 0.5 % ID/g	64.9 ± 4.3 % ID	5.1	32.3	0.5 % ID/g	0.6 % ID/g	0.9 % ID/g	0.3 % ID/g	competition profile / uptake mechanism of the tracer [4]: identical competition profile; 30 min uptake into H460 cells [%/100.000 cells] [6]: 4.2 ± 0.1 %/100.000 cells
N[C@@H](CCC(Cc1ccc(OC[18F])cc1)C(=O)O)C(=O)O (stereo partly drawn) [[^18F]-41, (2S)-2-amino-5-[4-(fluoromethoxy)benzyl]hexanedioic acid]	wash-out of radioactivity	3.1 ± 0.4 % ID/g	0.3 ± 0.1 % ID/g	1.0 ± 0.5 % ID/g	6.8 ± 1.3 % ID/g	69.3 ± 14.5 % ID	26.3	90.6	0.5 % ID/g	0.4 % ID/g	3.7 % ID/g	1.6 % ID/g	activity retained inside the tumor cells [8]: More than 80%; initial uptake in the inflammatory lesions [3]: reduced compared to FDG; tumor uptake and retention (summary statement) ([5]; mouse, in vivo): high tumor uptake and retention; uptake of applied dose by the cells ([2]; 0.25 MBq, 60 min incubation, approx. 100.000 cells): Approximately 13 % of applied dose
